In brackets after ≈: the same amount, converted by molar mass. Where two headings read alike, the source gives them in different places. Marks after values point to notes of the source that are not given here.
Key:
[1] = tested on: MRSA BAA-44; assay: MIC assay (broth microdilution, CLSI); settings: Staphylococcus aureus, read-out: MIC, MRSA BAA-44
[2] = tested on: Enterococcus faecium (ATCC 700221), VRE; assay: MIC assay (broth microdilution, CLSI); format: cell-based
[3] = tested on: HeLa cells; assay: in vitro; format: cell-based; settings: human, 24 h
[4] = in vitro; format: cell-based; settings: human
[5] = tested on: MRSA BAA-1707 planktonic cells and biofilms; assay: Calgary Biofilm Device (CBD) assay, MBC/MBEC
[6] = tested on: MRSA BAA-1707; assay: MIC assay (broth microdilution, CLSI); settings: Staphylococcus aureus, read-out: MIC, MRSA BAA-1707
[7] = tested on: S. epidermidis 12228; assay: MIC assay with Tiron or metal(II) cation co-treatment; format: cell-based, Staphylococcus epidermidis; settings: Staphylococcus epidermidis
[8] = tested on: E. faecium 700221 (VRE); assay: as above; format: cell-based, Enterococcus faecium
[9] = tested on: Staphylococcus epidermidis (ATCC 35984), MRSE; assay: MIC assay (broth microdilution, CLSI); format: cell-based; settings: for MIC: Staphylococcus epidermidis
[10] = tested on: VRE (E. faecium ATCC 700221) planktonic cells and biofilms; assay: Calgary Biofilm Device (CBD) assay, MBC/MBEC; format: cell-based, Enterococcus faecium; settings: for MBC: Enterococcus
[11] = tested on: human red blood cells; assay: Hemolysis assay with red blood cells; settings: 200 μM
Procedure, shortened: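 Hemolysis expressed as percent of the Triton X signal with DMSO as zero, using OD405 of supernatant. Compounds from DMSO stocks were incubated with triple-washed human erythrocytes for 1 hour at 37° C. before centrifugation; three independent experiments.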

[12] = tested on: Staphylococcus epidermidis (ATCC 12228); assay: MIC assay (broth microdilution, CLSI); format: cell-based; settings: Staphylococcus epidermidis
[13] = tested on: MRSA-1 (methicillin-resistant Staphylococcus aureus clinical isolate); assay: MIC assay (broth microdilution, CLSI); format: cell-based; settings: Staphylococcus aureus, MRSA, read-out: MIC, MRSA-1
[14] = Mouse toxicity evaluation; format: in vivo, C57BL/6 mice; settings: once daily oral gavage in corn oil, 7 days; 202 22.1 mg/kg, 209 4.2 mg/kg
Protocol: Groups of five C57BL/6 mice (Charles River Laboratories International, Inc.; mice were eight weeks old) were treated once daily with HPs 202 (22.1 mg/kg) and 209 (4.2 mg/kg) for 7 days via oral gavage (0.25 mL of formulated corn oil for 25 gram mouse on average).

[15] = tested on: MRSA-2; assay: MIC assay with Tiron or metal(II) cation co-treatment; format: cell-based, Staphylococcus aureus; settings: Staphylococcus aureus
[16] = tested on: M. tuberculosis H37Ra (ATCC 25177); assay: Mycobacterium tuberculosis MIC assay; format: cell-based; settings: Mycobacterium tuberculosis
Procedure, shortened: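 Culture diluted to OD600 0.01 and exposed to compounds in 0.5% final DMSO, each compound tested in three rows. Growth read as OD600 absorbance. Data from three independent experiments.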

[17] = tested on: S. aureus clinical isolate SA 156; assay: MIC assay (broth microdilution, CLSI); settings: Staphylococcus aureus, read-out: MIC, SA 156
[18] = tested on: S. aureus clinical isolate SA 147; assay: MIC assay (broth microdilution, CLSI); settings: Staphylococcus aureus, read-out: MIC, SA 147
[19] = tested on: MRSA-2 (methicillin-resistant Staphylococcus aureus clinical isolate); assay: MIC assay (broth microdilution, CLSI); format: cell-based; settings: Staphylococcus aureus, MRSA, Table 7; a midpoint of 2-fold range; b lowest concentration tested; read-out: MIC, MRSA-2
[20] = tested on: MRSE (S. epidermidis ATCC 35984) planktonic cells and biofilms; assay: Calgary Biofilm Device (CBD) assay, MBC/MBEC; format: cell-based, Staphylococcus epidermidis; settings: for MBC: Staphylococcus epidermidis, read-out: MRSE 35984 MBC
[21] = tested on: MRSA-2 planktonic cells and biofilms; assay: Calgary Biofilm Device (CBD) assay, MBC/MBEC; format: cell-based, Staphylococcus aureus
[22] = tested on: S. aureus clinical isolate SA 129; assay: MIC assay (broth microdilution, CLSI); settings: Staphylococcus aureus, read-out: MIC, SA 129
[23] = tested on: S. aureus clinical isolate SA 138; assay: MIC assay (broth microdilution, CLSI); settings: Staphylococcus aureus, read-out: MIC, SA 138
[24] = tested on: methicillin-sensitive S. aureus strains; assay: MIC assay; format: cell-based; settings: Staphylococcus aureus; read-out: MIC against methicillin-sensitive S. aureus strains
[25] = Enterococcus faecium, Table 2A, read-out: MIC, Enterococcus faecium (ATCC 700221)
[26] = Table 7, b lowest concentration tested, read-out: MIC, VRE 700221
[27] = Table 2A, read-out: MIC, Staphylococcus epidermidis (ATCC 35984)
[28] = Table 7, read-out: MIC, MRSE 35984
[29] = Table 5, c lowest concentration tested
[30] = ATCC12228, Table 2A, read-out: MIC, Staphylococcus epidermidis (ATCC 12228)
[31] = ATCC12228, Table 7, b lowest concentration tested, read-out: MIC, S. epidermidis 12228

In the case of `Oc1c(Br)cc(Br)c2nc3cc(Cl)c(Cl)cc3nc12` [Compound 16], the MIC [1] is reported as 50 µM (≈ 21.1 µg/mL), the MIC [2, 25] is reported as 0.39 µM (≈ 0.165 µg/mL) and the MIC ([2]; Enterococcus faecium, Table 2B, b lowest concentration tested, read-out: MIC, Enterococcus faecium (ATCC 700221)) is reported as 0.39 µM (≈ 0.165 µg/mL). For the same compound, the MIC [2, 26] was 0.39 µM (≈ 0.165 µg/mL), the IC50 [3] was over 100 µM and the IC50 at 24 h [4] was over 100 µM. For the same compound, the MBC ([5]; Staphylococcus aureus, read-out: MRSA BAA-1707 MBC) was 6.25 µM (≈ 2.64 µg/mL), the MIC [6] was 25 µM (≈ 10.6 µg/mL) and the MIC ([7]; S. epidermidis 12228, without Tiron, read-out: MIC) was 0.1 µM. It also gave an MIC ([7]; S. epidermidis 12228, read-out: MIC with Tiron) of 0.1 µM, an MIC ([8]; VRE 700221, without Tiron, read-out: MIC) of 0.39 µM and an MIC ([8]; VRE 700221, read-out: MIC with Tiron) of 0.39 µM. The MIC [9, 27] was 0.2 to 0.39 µM (≈ 0.0846 to 0.165 µg/mL), the MIC ([9]; Table 2B, read-out: MIC, Staphylococcus epidermidis (ATCC 35984)) was 0.3 µM (≈ 0.127 µg/mL) and the MIC [9, 28] was 0.3 to 0.59 µM (≈ 0.127 to 0.25 µg/mL). The “MIC, MRSE 35984” value ([9]; Table 7) was 0.30^a μM, the MBC ([10]; Table 5, c lowest concentration tested, read-out: VRE MBC) was 0.39 µM (≈ 0.165 µg/mL) and the MBC ([10]; Table 8, c lowest concentration tested, read-out: VRE 700221 MBC) was 0.39 µM (≈ 0.165 µg/mL). For the same compound, the “VRE MBEC” value [10, 29] was 0.39/0.39 μM, the “% Hemolysis (200 μM)” value ([11]; human, 1 h, pH 7.2) was at most 1% and the MIC [12, 30] was 0.05 to 0.1 µM (≈ 0.0211 to 0.0423 µg/mL). For the same compound, the MIC [12, 31] was 0.08 µM (≈ 0.0338 µg/mL), the MIC ([13]; Table 2A) was 12.5 µM (≈ 5.29 µg/mL) and the MIC ([13]; Table 2B, b lowest concentration tested) was 12.5 µM (≈ 5.29 µg/mL). For the same compound, the “adverse side effects (changes in weight, seizure, death)” value [14] was “no adverse side effects”, the MIC ([15]; MRSA-2, without Tiron, read-out: MIC) was 12.5 µM and the MIC ([15]; MRSA-2, b lowest concentration tested, read-out: MIC with Tiron) was 0.1 µM. The MIC ([16]; 168 h, M. tuberculosis H37Ra, 7 days, read-out: Mtb MIC) was 6.25 µM (≈ 2.64 µg/mL) and the MIC ([16]; Table 7, read-out: MIC, M. tuberculosis H37Ra) was 6.25 µM (≈ 2.64 µg/mL).

Compound `Oc1c(I)cc(I)c2nccnc12` [Compound 26] has an MIC [1] of 1.56 µM (≈ 0.621 µg/mL), an MIC [2, 25] of 12.5 µM (≈ 4.97 µg/mL) and an MIC [2, 26] of 12.5 µM (≈ 4.97 µg/mL). It also gave an MIC [17] of 3.13 µM (≈ 1.25 µg/mL), an MIC [18] of 6.25 µM (≈ 2.49 µg/mL) and an IC50 at 24 h [4] of over 100 µM. It also gave an MIC [6] of 1.56 µM (≈ 0.621 µg/mL), an MIC [19] of 3.13 µM (≈ 1.25 µg/mL) and an MBC ([20]; Table 8) of 750 µM (≈ 298 µg/mL). It also gave an MBC ([21]; Staphylococcus aureus, MRSA, Table 4, read-out: MBC, MRSA-2) of over 2000 µM, an MBC ([21]; Staphylococcus aureus, MRSA, Table 8, a/b 2-/4-fold range in independent experiments, read-out: MRSA-2 MBC) of over 2000 µM and an MIC [9, 27] of 3.13 µM (≈ 1.25 µg/mL). The MIC [9, 28] was 3.13 µM (≈ 1.25 µg/mL), the “% Hemolysis (200 μM)” value ([11]; human, 1 h, pH 7.2) was at most 1% and the “% Hemolysis at 200 μM” value ([11]; human, 1 h, pH 7.2) was at most 1%. For the same compound, the MIC [22] was 6.25 µM (≈ 2.49 µg/mL), the MIC [12, 30] was 6.25 µM (≈ 2.49 µg/mL) and the MIC [12, 31] was 6.25 µM (≈ 2.49 µg/mL). The MIC ([13]; Table 11) was 1.56 µM (≈ 0.621 µg/mL) and the MIC [23] was 6.25 µM (≈ 2.49 µg/mL).

Compound `COc1cccc(OC)c1C(=O)N[C@@H]1C(=O)N2[C@@H]1SC(C)(C)[C@@H]2C(=O)O` [Methicillin, methicillin, reference compound] has an MIC [17] of 50 µM (≈ 19 µg/mL), an MIC [24] of 0.8 to 1.56 µM (≈ 0.304 to 0.593 µg/mL) and an MIC [22] of 25 µM (≈ 9.51 µg/mL). The MIC [23] was 25 µM (≈ 9.51 µg/mL).

Work on `CN[C@H](CC(C)C)C(=O)N[C@H]1C(=O)N[C@@H](CC(N)=O)C(=O)N[C@H]2C(=O)N[C@H]3C(=O)N[C@H](C(=O)N[C@H](C(=O)O)c4cc(O)cc(O)c4-c4cc3ccc4O)[C@H](O)c3ccc(c(Cl)c3)Oc3cc2cc(c3O[C@@H]2O[C@H](CO)[C@@H](O)[C@H](O)[C@H]2O[C@H]2C[C@](C)(N)[C@H](O)[C@H](C)O2)Oc2ccc(cc2Cl)[C@H]1O` [Vancomycin, vancomycin, reference compound] yielded an MIC ([2]; Enterococcus faecium, read-out: MIC, Enterococcus faecium (ATCC 700221)) of over 100 µM, an MIC ([2]; Table 2B, b lowest concentration tested, read-out: MIC, Enterococcus faecium (ATCC 700221)) of over 100 µM and an MIC ([2]; read-out: MIC, VRE 700221) of over 100 µM. For the same compound, the MIC [18] was 1.17 µM (≈ 1.7 µg/mL), the “MRSA BAA-1707 MBEC” value ([5]; Table 8) was over 2000 µM and the MBC [20] was 3 µM (≈ 4.35 µg/mL). For the same compound, the “MRSE MBEC” value ([20]; Table 5) was > 2,000 μM, the MBC ([21]; Staphylococcus aureus, MRSA, read-out: MBC, MRSA-2) was 5.9 µM (≈ 8.55 µg/mL) and the MBC ([21]; Staphylococcus aureus, MRSA, read-out: MRSA-2 MBC) was 3 µM (≈ 4.35 µg/mL). For the same compound, the MBC ([21]; Table 8, a/b 2-/4-fold range in independent experiments, read-out: MRSA-2 MBC) was 3.0 µM (≈ 4.35 µg/mL), the MBC ([10]; read-out: VRE 700221 MBC) was over 200 µM and the “VRE MBEC” value [10, 29] was 150 µM. The “% Hemolysis (200 μM)” value ([11]; 1 h, 37 °C) was at most 1%, the “% Hemolysis at 200 μM” value ([11]; red blood cells) was under 1% and the “% Hemolysis at 200 μM” value ([11]; Table 8, human red blood cells) was at most 1%. It also gave an MIC ([12]; ATCC12228, read-out: MIC, S. epidermidis 12228) of 1.17 µM (≈ 1.7 µg/mL), an MIC ([12]; ATCC12228, read-out: MIC, Staphylococcus epidermidis (ATCC 12228)) of 1.17 µM (≈ 1.7 µg/mL) and an MIC [23] of 1.17 µM (≈ 1.7 µg/mL).

Reference: patent US20180312473A1, “PHENAZINE DERIVATIVES AS ANTIMICROBIAL AGENTS” (priority 2015, published 2018)
